The source of these data is US10919859B2, “Benzylaminopyridylcyclopropanecarboxylic acids, pharmaceutical compositions and uses thereof” (Boehringer Ingelheim International GmbH, priority 2017, dated 2021).

One data set concerns the target human GPR40 receptor (Homo sapiens (Human), UniProt O14842). As to the kind of experiment: IP1 accumulation measurements using the IPOne assay system. The settings on record: 1321N1 cells stably expressing human GPR40, 1 h at 37° C. It counts as cell-based. As to the method: IP1 accumulation measurements using the IPOne assay system—1321N1 cells stably expressing human GPR40 receptor (Euroscreen, Belgium) are seeded 24 h before the assay in white 384-well plates in culture medium containing 10% FCS, 1% Na-Pyruvate and 400 μg/mL G418. IP1 is assayed according to the manufacturer's description (Cisbio Bioassays, France). In brief, the assay is started by substitution of the culture medium by stimulation buffer (Hepes 10 mM, CaCl2 1 mM, MgCl2 0.5 mM, KCl 4.2 mM, NaCl 146 mM, glucose 5.5 mM and LiCl 50 mM, pH 7.4). Cells are stimulated for 1 h at 37° C., 5% CO2 by addition of the compounds that are diluted in stimulation buffer containing LiCl. Assays are stopped by adding HTRF-conjugates (IP1-d2 and Anti-IP1 cryptate Tb) and lysis buffer, provided by the manufacturer. After an incubation time of 1 h at room temperature plates are measured using an EnVision™, Perkin Elmer. The obtained fluorescence ratios at 665/615 […] are then used to calculate the pEC50 values using Assay Explorer 3.3 Software (Accelrys, Inc.) by interpolation using an IP1 reference curve and subsequent sigmoidal curve fitting allowing for a variable hill slope.

A short description of data set [1]: Aqueous solubility (buffer vs acetonitrile/water, LC-UV). It counts as physicochemical. The settings on record: for solubility at 24 h: aqueous buffer, kinetic from dmso stock, pH 2.2 buffer, 24 h shaking, 2.5% DMSO; for Solubility at pH value 2.2: pH 2.2. On the procedure:
The aqueous solubility of the compounds of the invention is determined by comparing the amount dissolved in buffer to the amount in an acetonitrile/water (1/1) solution. Starting from a 10 mM DMSO stock solution aliquots are diluted with acetonitrile/water (1/1) or buffer, respectively. After 24 h of shaking, the solutions are filtrated and analyzed by LC-UV. The amount dissolved in buffer is compared to the amount in the acetonitrile solution.

[2] abbreviates: reference examples of WO 2013/178575.

Molecules are shown by their SMILES. Values after ≈ are worked out from the molar mass of the structure shown. Where only a bound is given, the exact number is not on record here.

Sequence of human GPR40 receptor (O14842 whole entry): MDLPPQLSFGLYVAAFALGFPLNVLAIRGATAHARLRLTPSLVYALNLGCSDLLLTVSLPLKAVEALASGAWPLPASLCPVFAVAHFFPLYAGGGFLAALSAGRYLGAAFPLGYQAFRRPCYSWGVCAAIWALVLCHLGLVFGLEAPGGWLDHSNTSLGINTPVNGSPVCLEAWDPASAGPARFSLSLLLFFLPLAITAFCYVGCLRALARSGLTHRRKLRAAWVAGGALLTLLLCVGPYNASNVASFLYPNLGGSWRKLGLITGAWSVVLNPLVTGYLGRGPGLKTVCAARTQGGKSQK

`Cc1cc(OCCCS(C)(=O)=O)cc(C)c1-c1cccc(CNc2ccc([C@H]3CC3C(=O)O)nc2)c1` (stereo partly shown) [Example 1]: the midpoint of the response at human GPR40 receptor, the EC50, lay at 50 nM. For the same compound, the solubility (usually how much of the substance goes into solution per volume) at 24 h in data set [1] (examples in this invention) is 83 µg/mL (≈ 163 µM).
The matching figures for `CC(C)(O)CCOc1ccc(-c2cc(CNc3ccc([C@H]4C[C@@H]4C(=O)O)nc3)ccc2C(F)(F)F)cc1` [Example 2, (1S,2S)-2-(5-{[4′-(3-Hydroxy-3-methyl-butoxy)-6-trifluoromethyl-biphenyl-3-ylmethyl]-amino}-pyridin-2-yl)-cyclopropanecarboxylic acid]: 17 nM and 72 µg/mL (≈ 140 µM).
The corresponding values for `O=C(O)[C@H]1C[C@@H]1c1ccc(NCc2ccc(C(F)(F)F)c(-c3ccc(OCC4CC4)cc3)c2)cn1` [Example 3, (1S,2S)-2-{5-[(4′-Cyclopropylmethoxy-6-trifluoromethyl-biphenyl-3-ylmethyl)-amino]-pyridin-2-yl}-cyclopropanecarboxylic acid] are 22 nM and 22 µg/mL (≈ 45.6 µM).
The corresponding values for `O=C(O)[C@H]1C[C@@H]1c1ccc(NCc2ccc(C(F)(F)F)c(-c3ccc(OC(F)(F)F)cc3)c2)cn1` [Example 4, (1S,2S)-2-{5-[(4′-Trifluoromethoxy-6-trifluoromethyl-biphenyl-3-ylmethyl)-amino]-pyridin-2-yl}-cyclopropanecarboxylic acid] are 44 nM and 14 µg/mL (≈ 28.2 µM).
As to `Cc1cc(OCCC(C)(C)O)cc(C)c1-c1cc(CNc2ccc([C@H]3C[C@@H]3C(=O)O)nc2)ccc1C(F)(F)F` [Example 5], the EC50 (commonly the concentration at which the effect is half-maximal) on human GPR40 receptor was found to be 12 nM. In addition, the solubility at 24 h in data set [1] (examples in this invention) was less than 1 µg/mL.
The corresponding values for `COc1ccc(-c2ccc(-c3cc(CNc4ccc([C@H]5C[C@@H]5C(=O)O)nc4)c(F)cc3F)cc2)nn1` [Example 6, (1S,2S)-2-(5-{[4,6-Difluoro-4′-(6-methoxy-pyridazin-3-yl)-biphenyl-3-ylmethyl]-amino}-pyridin-2-yl)-cyclopropanecarboxylic acid] are 64 nM and 56 µg/mL (≈ 115 µM).
The matching figures for `COc1ccc(-c2ccc(-c3cc(CNc4ccc([C@H]5C[C@@H]5C(=O)O)nc4)c(F)cc3F)cc2)nc1` [Example 7, (1S,2S)-2-(5-{[4,6-Difluoro-4′-(5-methoxy-pyridin-2-yl)-biphenyl-3-ylmethyl]-amino}-pyridin-2-yl)-cyclopropanecarboxylic acid]: 27 nM and 77 µg/mL (≈ 158 µM).
The matching figures for `Cc1cc(N)ccc1-c1cc(CNc2ccc([C@H]3C[C@@H]3C(=O)O)nc2)c(F)cc1F` [Example 8, (1S,2S)-2-{5-[(4′-Amino-4,6-difluoro-2′-methyl-biphenyl-3-ylmethyl)-amino]-pyridin-2-yl}-cyclopropanecarboxylic acid]: 127 nM and more than 96 µg/mL.
As to `O=C(O)[C@H]1C[C@@H]1c1ccc(NCc2cc(-c3ccc(O)c(Cl)c3)c(F)cc2F)cn1` [Example 9, (1S,2S)-2-{5-[(3′-Chloro-4,6-difluoro-4′-hydroxy-biphenyl-3-ylmethyl)-amino]-pyridin-2-yl}-cyclopropanecarboxylic acid], at human GPR40 receptor, the EC50 was found to be 943 nM. Moreover, the concentration in solution in data set [1] (examples in this invention) (solubility at 24 h) came to 58 µg/mL (≈ 135 µM).
As for `COc1c(F)cc(-c2cc(CNc3ccc([C@H]4C[C@@H]4C(=O)O)nc3)c(F)cc2F)cc1F` [Example 10, (1S,2S)-2-{5-[(4,6,3′,5′-Tetrafluoro-4′-methoxy-biphenyl-3-ylmethyl)-amino]-pyridin-2-yl}-cyclopropanecarboxylic acid], at human GPR40 receptor, the EC50 amounted to 52 nM. Besides, in data set [1] (examples in this invention), the solubility at 24 h stood at 61 µg/mL (≈ 137 µM).
At human GPR40 receptor, `Cc1cc(-c2nnn(C)n2)cc(C)c1-c1ccc(F)c(CNc2ccc([C@H]3C[C@@H]3C(=O)O)nc2)c1` [Example 11] came in with an EC50 of 8 nM. Moreover, in data set [1], the Solubility (as a rule, the concentration that dissolves in the medium under given conditions) at pH value 2.2 amounted to 56 μg/mL.
The matching figures for `Cc1cc(OCc2ccccc2)cc(C)c1-c1ccc(F)c(CNc2ccc([C@H]3C[C@@H]3C(=O)O)nc2)c1` [Example 12]: 44 nM and 27 μg/mL.
The matching figures for `Cc1cc(OCC(C)(C)C#N)cc(C)c1-c1ccc(F)c(CNc2ccc([C@H]3C[C@@H]3C(=O)O)nc2)c1` [Example 13]: 59 nM and 49 μg/mL.
The corresponding values for `Cc1cc(OCC(=O)O)cc(C)c1-c1ccc(F)c(CNc2ccc([C@H]3C[C@@H]3C(=O)O)nc2)c1` [Example 14] are 4520 nM and 71 μg/mL.
Compound `Cc1cc(-c2ccn(C)c(=O)c2)cc(C)c1-c1ccc(F)c(CNc2ccc([C@H]3C[C@@H]3C(=O)O)nc2)c1` [Example 16] had an EC50 on human GPR40 receptor of 29 nM. Moreover, in data set [1], the “Solubility at pH value 2.2” value was 79 μg/mL.
The matching figures for `Cc1cc(-c2ccn(C)c(=O)c2)cc(C)c1-c1ccc(F)c(CNc2ccc([C@H]3C[C@@H]3C(=O)O)nc2)c1` [Example 17]: 18 nM and 73 μg/mL.
The corresponding values for `Cc1cc(-c2cc(=O)n(C)cn2)cc(C)c1-c1ccc(F)c(CNc2ccc([C@H]3C[C@@H]3C(=O)O)nc2)c1` [Example 18] are 23 nM and 72 μg/mL.
The corresponding values for `Cc1cc(OCCC(C)(C)O)cc(C)c1-c1ccc(F)c(CNc2ccc([C@H]3C[C@@H]3C(=O)O)nc2)c1` [Example 19] are 27 nM and 81 μg/mL.
For the compound `Cc1cc(OC2CCOCC2)cc(C)c1-c1ccc(F)c(CNc2ccc([C@H]3C[C@@H]3C(=O)O)nc2)c1` [Example 20], on human GPR40 receptor, the EC50 was found to be 35 nM. For the same compound, the “Solubility at pH value 2.2” value in data set [1] came to 66 μg/mL.
The matching figures for `Cc1cc(OCC(C)(C)O)cc(C)c1-c1ccc(F)c(CNc2ccc([C@H]3C[C@@H]3C(=O)O)nc2)c1` [Example 21]: 101 nM and 82 μg/mL.
The compound `Cc1cc(CO)cc(C)c1-c1ccc(F)c(CNc2ccc([C@H]3C[C@@H]3C(=O)O)nc2)c1` [Example 22] displayed an EC50 on human GPR40 receptor of 206 nM. Besides, in data set [1], the “Solubility at pH value 2.2” value is on record as 48 μg/mL.
In turn, `O=C(O)[C@H]1C[C@@H]1c1ccc(NCc2cc(-c3c(F)cc(F)cc3F)ccc2F)cn1` [Example 23] showed an EC50 on human GPR40 receptor of 505 nM. For the same compound, in data set [1], the “Solubility at pH value 2.2” value amounted to 53 μg/mL.
The corresponding values for `Cc1cc(O[C@@H]2CCOC2)cc(C)c1-c1ccc(F)c(CNc2ccc([C@H]3C[C@@H]3C(=O)O)nc2)c1` [Example 24] are 44 nM and 64 μg/mL.
The corresponding values for `Cc1cc(O[C@H]2CCOC2)cc(C)c1-c1ccc(F)c(CNc2ccc([C@H]3C[C@@H]3C(=O)O)nc2)c1` [Example 25] are 28 nM and 69 μg/mL.
The corresponding values for `Cc1cc(OCC2CCOC2)cc(C)c1-c1ccc(F)c(CNc2ccc([C@H]3C[C@@H]3C(=O)O)nc2)c1` (stereo partly shown) [Example 26] are 39 nM and 70 μg/mL.
`Cc1cc(C(N)=O)cc(C)c1-c1ccc(F)c(CNc2ccc([C@H]3C[C@@H]3C(=O)O)nc2)c1` [Example 27] registered an EC50 at human GPR40 receptor of 401 nM. Also, the “Solubility at pH value 2.2” value in data set [1] is 62 μg/mL.
The matching figures for `COc1cc(OC)c(Cl)c(-c2ccc(F)c(CNc3ccc([C@H]4C[C@@H]4C(=O)O)nc3)c2)c1Cl` [Example 28]: 30 nM and 18 μg/mL.
The matching figures for `N#CC1(c2ccccc2-c2ccc(F)c(CNc3ccc([C@H]4C[C@@H]4C(=O)O)nc3)c2)CC1` [Example 29]: 696 nM and 57 μg/mL.
The corresponding values for `O=C(O)[C@H]1C[C@@H]1c1ccc(NCc2cc(-c3c(Cl)cccc3Cl)ccc2F)cn1` [Example 30] are 34 nM and 53 μg/mL.
In the case of `COc1cc(OC)c(-c2ccc(F)c(CNc3ccc([C@H]4C[C@@H]4C(=O)O)nc3)c2)c(OC)c1` [Example 31], the EC50 on human GPR40 receptor worked out at 453 nM. Further, in data set [1], the “Solubility at pH value 2.2” value came out at 88 μg/mL.
For `Cc1cc(C(=O)NCC(C)(C)O)cc(C)c1-c1ccc(F)c2c1CC[C@H]2Oc1ccc([C@H]2C[C@@H]2C(=O)O)cc1` [WO 2013/178575 Example 15, reference compound], the solubility at 24 h in data set [1] (setting [2]) was less than 1 µg/mL.
The same measure, in the same setting: then `Cc1cc(OCCC(C)(C)O)cc(C)c1-c1ccc(F)c2c1CC[C@H]2Oc1ccc([C@H]2C[C@@H]2C(=O)O)cc1` [WO 2013/178575 Example 17, reference compound], with less than 1 µg/mL.
Same read-out and setting: the same measure for `Cc1cc(-c2nnn(C)n2)cc(C)c1-c1ccc(F)c2c1CC[C@H]2Oc1ccc([C@H]2C[C@@H]2C(=O)O)cc1` [WO 2013/178575 Example 45, reference compound]: less than 1 µg/mL; for `Cc1c(C#N)cccc1-c1ccc(F)c2c1CC[C@H]2Oc1ccc([C@H]2C[C@@H]2C(=O)O)cc1` [WO 2013/178575 Example 54, reference compound]: less than 1 µg/mL.
